Experimental data published in PubChem BioAssay (NCI).
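GI50 marks 50% less growth. Definition used: TGI = concentration required for complete inhibition of growth.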

Assays:
Experiment in all cases: NCI anticancer screen, dose series, 384-well format
[1] = tested on: A498 renal
[2] = tested on: A549 NSCLC
[3] = tested on: ACHN renal
[4] = tested on: BT-549 breast
[5] = tested on: CAKI-1 renal
[6] = tested on: COLO 205 colon
[7] = tested on: DU-145 prostate
[8] = tested on: EKVX NSCLC
[9] = tested on: HCC-2998 colon
[10] = tested on: HCT-116 colon
[11] = tested on: HCT-15 colon
[12] = tested on: HL-60(TB) leukemia
[13] = tested on: HOP-62 NSCLC
[14] = tested on: HOP-92 NSCLC
[15] = tested on: HS 578T breast
[16] = tested on: HT29 colon
[17] = tested on: IGROV1 ovarian
[18] = tested on: KM12 colon
[19] = tested on: LOX IMVI melanoma
[20] = tested on: M14 melanoma
[21] = tested on: MALME-3M melanoma
[22] = tested on: MCF7 breast
[23] = tested on: MDA-MB-231 breast
[24] = tested on: MDA-MB-435 melanoma
[25] = tested on: MDA-MB-468 breast
[26] = tested on: MOLT-4 leukemia
[27] = tested on: NCI-H226 lung
[28] = tested on: NCI-H23 lung
[29] = tested on: NCI-H322M lung
[30] = tested on: NCI-H460 NSCLC
[31] = tested on: NCI-H522 lung
[32] = tested on: NCI/ADR-RES ovarian
[33] = tested on: OVCAR-3 ovarian
[34] = tested on: OVCAR-4 ovarian
[35] = tested on: OVCAR-5 ovarian
[36] = tested on: OVCAR-8 ovarian
[37] = tested on: PC-3 prostate
[38] = tested on: RPMI-8226 leukemia
[39] = tested on: RXF 393 renal
[40] = tested on: SF-268 CNS
[41] = tested on: SF-295 CNS
[42] = tested on: SF-539 CNS
[43] = tested on: SK-MEL-28 melanoma
[44] = tested on: SK-MEL-5 melanoma
[45] = tested on: SK-OV-3 ovarian
[46] = tested on: SN12C renal
[47] = tested on: SNB-19 CNS
[48] = tested on: SNB-75 CNS
[49] = tested on: SR leukemia
[50] = tested on: T-47D breast
[51] = tested on: TK-10 renal
[52] = tested on: U251 glioblastoma
[53] = tested on: UACC-257 melanoma
[54] = tested on: UACC-62 melanoma

Structure (SMILES): Clc1ccc(N2CCC(N3CCCC3)CC2)cc1-c1nc2ccccc2[nH]1
- GI50 [1]: 14.4 µM
- TGI [1]: 27.6 µM
- GI50 [2]: 17.2 µM
- TGI [2]: 32.3 µM
- GI50 [3]: 16.6 µM
- TGI [3]: 30.8 µM
- GI50 [4]: 8.67 µM
- TGI [4]: 20.9 µM
- GI50 [5]: 16.9 µM
- TGI [5]: 33.4 µM
- GI50 [6]: 14.3 µM
- TGI [6]: 27.6 µM
- GI50 [7]: 15.3 µM
- TGI [7]: 32.5 µM
- GI50 [8]: 14.2 µM
- TGI [8]: 28.1 µM
- GI50 [9]: 12.5 µM
- TGI [9]: 25.3 µM
- GI50 [10]: 11.7 µM
- TGI [10]: 24.7 µM
- GI50 [11]: 3.84 µM
- TGI [11]: 14.1 µM
- GI50 [12]: 12.3 µM
- TGI [12]: 25 µM
- GI50 [13]: 16.1 µM
- TGI [13]: 29.8 µM
- GI50 [14]: 18.4 µM
- TGI [14]: 32.8 µM
- GI50 [15]: 14.8 µM
- TGI [15]: 28.1 µM
- GI50 [16]: 10.9 µM
- TGI [16]: 23.6 µM
- GI50 [17]: 15.5 µM
- TGI [17]: 29.5 µM
- GI50 [18]: 14.8 µM
- TGI [18]: 29.1 µM
- GI50 [19]: 16.5 µM
- TGI [19]: 30.2 µM
- GI50 [20]: 18 µM
- TGI [20]: 32 µM
- GI50 [21]: 13 µM
- TGI [21]: 25.8 µM
- GI50 [22]: 12.1 µM
- TGI [22]: 25.4 µM
- GI50 [23]: 17 µM
- TGI [23]: 31.2 µM
- GI50 [24]: 17.1 µM
- TGI [24]: 30.9 µM
- GI50 [25]: 14.1 µM
- TGI [25]: 27.3 µM
- GI50 [26]: 16.5 µM
- TGI [26]: 30.3 µM
- GI50 [27]: 15.2 µM
- TGI [27]: 28.6 µM
- GI50 [28]: 14.1 µM
- TGI [28]: 27.7 µM
- GI50 [29]: 14.3 µM
- TGI [29]: 32 µM
- GI50 [30]: 17.2 µM
- TGI [30]: 31.4 µM
- GI50 [31]: 17.7 µM
- TGI [31]: 31.6 µM
- GI50 [32]: 15.4 µM
- TGI [32]: 32.5 µM
- GI50 [33]: 14.6 µM
- TGI [33]: 28 µM
- GI50 [34]: 11.9 µM
- TGI [34]: 25.9 µM
- GI50 [35]: 15.8 µM
- TGI [35]: 30.1 µM
- GI50 [36]: 16.7 µM
- TGI [36]: 31.1 µM
- GI50 [37]: 15.1 µM
- TGI [37]: 30.5 µM
- GI50 [38]: 16.1 µM
- TGI [38]: 29.7 µM
- GI50 [39]: 15.1 µM
- TGI [39]: 28.6 µM
- GI50 [40]: 16.3 µM
- TGI [40]: 30.1 µM
- GI50 [41]: 17.8 µM
- TGI [41]: 31.8 µM
- GI50 [42]: 16.9 µM
- TGI [42]: 30.9 µM
- GI50 [43]: 14.9 µM
- TGI [43]: 28.3 µM
- GI50 [44]: 4.01 µM
- TGI [44]: 16 µM
- GI50 [45]: 14.1 µM
- TGI [45]: 27.5 µM
- GI50 [46]: 11.8 µM
- TGI [46]: 24.5 µM
- GI50 [47]: 18.2 µM
- TGI [47]: 37 µM
- GI50 [48]: 16.9 µM
- TGI [48]: 31 µM
- GI50 [49]: 11.8 µM
- TGI [49]: 24.2 µM
- GI50 [50]: 13.9 µM
- TGI [50]: 27.4 µM
- GI50 [51]: 12.4 µM
- TGI [51]: 25 µM
- GI50 [52]: 16.9 µM
- TGI [52]: 30.7 µM
- GI50 [53]: 2 µM
- TGI [53]: 4.78 µM
- GI50 [54]: 13.5 µM
- TGI [54]: 26.6 µM
